Measured values from patent US11319299B2, “Substituted carboxamides as inhibitors of WDR5 protein-protein binding” (PROPELLON THERAPEUTICS INC., priority 2016, dated 2022).

These compounds were tested against WDR5 (Homo sapiens (Human), UniProt P61964) (assay: Surface Plasmon Resonance (SPR) assay, KD and residence time). Details: surface plasmon resonance (SPR) assay; read-out: WDR5 binding affinity (KD).
Assay type: binding
A Kd of 0.943 nM was found for `C[C@@H]1CN(c2cc(F)c(C3=CCN(C4COC4)CC3)cc2NC(=O)c2c[nH]c(=O)cc2C(F)(F)F)C[C@H](C)N1C` [Example 235, N-[4-fluoro-5-[1-(oxetan-3-yl)-3,6-dihydro-2H-pyridin-4-yl]-2-[(3R,5S)-3,4,5-trimethylpiperazin-1-yl]phenyl]-6-oxo-4-(trifluoromethyl)-1H-pyridine-3-carboxamide] in this work.
A Kd of 31.1 nM was found for `C[C@@H]1CN(c2cc(F)c(C3CCNCC3)cc2NC(=O)c2c[nH]c(=O)cc2C(F)(F)F)C[C@H](C)N1C` [Example 236, N-[4-fluoro-5-piperidin-4-yl-2-[(3R,5S)-3,4,5-trimethylpiperazin-1-yl]phenyl]-6-oxo-4-(trifluoromethyl)-1H-pyridine-3-carboxamide] in this work.
A Kd of 9.33 nM was found for `CN(C)[C@@H]1CCN(c2cc(F)c(-c3ccc(O)nc3)cc2NC(=O)c2c[nH]c(=O)cc2C(F)(F)F)C1` [Example 237, N-[4-fluoro-5-(6-hydroxypyridin-3-yl)-2-[(3R)-3-(dimethylamino)pyrrolidin-1-yl]phenyl]-6-oxo-4-(trifluoromethyl)-1H-pyridine-3-carboxamide] in this work.
A Kd of 5.11 nM was found for `CN(C)[C@@H]1CCN(c2cc(F)c(-c3ccc(OCC4CC4)nc3)cc2NC(=O)c2c[nH]c(=O)cc2C(F)(F)F)C1` [Example 238, N-[5-[6-(cyclopropylmethoxy)pyridin-3-yl]-4-fluoro-2-[(3R)-3-(dimethylamino)pyrrolidin-1-yl]phenyl]-6-oxo-4-(trifluoromethyl)-1H-pyridine-3-carboxamide] in this work.
A Kd of 3.49 nM was found for `C[C@@H]1CN(c2cc(F)c(C3=CCN(C4CCN(C)CC4)CC3)cc2NC(=O)c2c[nH]c(=O)cc2C(F)(F)F)C[C@H](C)N1C` [Example 242, N-[4-fluoro-5-[1-(1-methylpiperidin-4-yl)-3,6-dihydro-2H-pyridin-4-yl]-2-[(3R,5S)-3,4,5-trimethylpiperazin-1-yl]phenyl]-6-oxo-4-(trifluoromethyl)-1H-pyridine-3-carboxamide] in this work.
A Kd of 2.16 nM was found for `C[C@@H]1CN(c2cc(F)c(C3=CCN(C(=O)C(C)(C)C)CC3)cc2NC(=O)c2c[nH]c(=O)cc2C(F)(F)F)C[C@H](C)N1C` [Example 243, N-[5-[1-(2,2-dimethylpropanoyl)-3,6-dihydro-2H-pyridin-4-yl]-4-fluoro-2-[(3R,5S)-3,4,5-trimethylpiperazin-1-yl]phenyl]-6-oxo-4-(trifluoromethyl)-1H-pyridine-3-carboxamide] in this work.
A Kd of 1.97 nM was found for `C[C@@H]1CN(c2cc(F)c(C3CCN(C(=O)C(C)(C)C)CC3)cc2NC(=O)c2c[nH]c(=O)cc2C(F)(F)F)C[C@H](C)N1C` [Example 244, N-[5-[1-(2,2-dimethylpropanoyl)piperidin-4-yl]-4-fluoro-2-[(3R,5S)-3,4,5-trimethylpiperazin-1-yl]phenyl]-6-oxo-4-(trifluoromethyl)-1H-pyridine-3-carboxamide] in this work.
A Kd of 2.51 nM was found for `C[C@@H]1CN(c2ncc(-c3cc(NC(=O)c4cn(C)c(=O)cc4C(F)(F)F)c(N4C[C@@H](C)N(C)[C@@H](C)C4)cc3F)cn2)C[C@H](C)O1` [Example 246, N-[4-fluoro-5-[2-[(2R,6S)-2,6-dimethylmorpholin-4-yl]pyrimidin-5-yl]-2-[(3S,5R)-3,4,5-trimethylpiperazin-1-yl]phenyl]-1-methyl-6-oxo-4-(trifluoromethyl)pyridine-3-carboxamide] in this work.
A Kd of 0.665 nM was found for `C[C@@H]1CN(c2cc(F)c(C3=CCN(S(C)(=O)=O)C3)cc2NC(=O)c2c[nH]c(=O)cc2C(F)(F)F)C[C@H](C)N1C` [Example 249, N-[4-fluoro-5-(1-methylsulfonyl-2,5-dihydropyrrol-3-yl)-2-[(3R,5S)-3,4,5-trimethylpiperazin-1-yl]phenyl]-6-oxo-4-(trifluoromethyl)-1H-pyridine-3-carboxamide] in this work.
A Kd of 76.9 nM was found for `C[C@@H]1CN(c2cc(F)c(-c3ccc(OCC4CC4)nc3)cc2NC(=O)c2cc(Cl)cc(Cl)c2)C[C@H](C)N1C` [Example 250, 3,5-dichloro-N-[5-[6-(cyclopropylmethoxy)pyridin-3-yl]-4-fluoro-2-[(3R,5S)-3,4,5-trimethylpiperazin-1-yl]phenyl]benzamide] in this work.
A Kd of 15.6 nM was found for `C[C@@H]1CN(c2cc(F)c(-c3ccc(OCC4CC4)nc3)cc2NC(=O)c2ccc(F)cc2Cl)C[C@H](C)N1C` [Example 251, 2-chloro-N-[5-[6-(cyclopropylmethoxy)pyridin-3-yl]-4-fluoro-2-[(3R,5S)-3,4,5-trimethylpiperazin-1-yl]phenyl]-4-fluorobenzamide] in this work.
A Kd of 2.79 nM was found for `CC(=O)N1CC=C(c2cc(NC(=O)c3c[nH]c(=O)cc3C(F)(F)F)c(N3C[C@@H](C)N(C)[C@@H](C)C3)cc2F)CC1` [Example 252, N-[5-(1-acetyl-3,6-dihydro-2H-pyridin-4-yl)-4-fluoro-2-[(3R,5S)-3,4,5-trimethylpiperazin-1-yl]phenyl]-6-oxo-4-(trifluoromethyl)-H-pyridine-3-carboxamide] in this work.
A Kd of 3.3 nM was found for `CCOC(=O)N1CC=C(c2cc(NC(=O)c3c[nH]c(=O)cc3C(F)(F)F)c(N3C[C@@H](C)N(C)[C@@H](C)C3)cc2F)CC1` [Example 253, ethyl 4-[2-fluoro-5-[[6-oxo-4-(trifluoromethyl)-1H-pyridine-3-carbonyl]amino]-4-[(3R,5S)-3,4,5-trimethylpiperazin-1-yl]phenyl]-3,6-dihydro-2H-pyridine-1-carboxylate] in this work.
A Kd of 3.34 nM was found for `CC(C)COC(=O)N1CC=C(c2cc(NC(=O)c3c[nH]c(=O)cc3C(F)(F)F)c(N3C[C@@H](C)N(C)[C@@H](C)C3)cc2F)CC1` [Example 254, 2-methylpropyl 4-[2-fluoro-5-[[6-oxo-4-(trifluoromethyl)-1H-pyridine-3-carbonyl]amino]-4-[(3R,5S)-3,4,5-trimethylpiperazin-1-yl]phenyl]-3,6-dihydro-2H-pyridine-1-carboxylate] in this work.
A Kd of 1.98 nM was found for `C[C@@H]1CN(c2cc(F)c(C3=CCN(C(=O)CC(C)(C)C)CC3)cc2NC(=O)c2c[nH]c(=O)cc2C(F)(F)F)C[C@H](C)N1C` [Example 255, N-[5-[1-(3,3-dimethylbutanoyl)-3,6-dihydro-2H-pyridin-4-yl]-4-fluoro-2-[(3R,5S)-3,4,5-trimethylpiperazin-1-yl]phenyl]-6-oxo-4-(trifluoromethyl)-1H-pyridine-3-carboxamide] in this work.
A Kd of 11.8 nM was found for `C[C@@H]1CN(c2cc(F)c(C3CCN(C(=O)CC(C)(C)C)CC3)cc2NC(=O)c2c[nH]c(=O)cc2C(F)(F)F)C[C@H](C)N1C` [Example 256, N-[5-[1-(3,3-dimethylbutanoyl)piperidin-4-yl]-4-fluoro-2-[(3R,5S)-3,4,5-trimethylpiperazin-1-yl]phenyl]-6-oxo-4-(trifluoromethyl)-1H-pyridine-3-carboxamide] in this work.
A Kd of 1.7 nM was found for `C[C@@H]1CN(c2cc(F)c(-c3ccc(F)nc3)cc2NC(=O)c2c[nH]c(=O)cc2C(F)(F)F)C[C@H](C)N1C` [Example 257, N-[4-fluoro-5-(6-fluoropyridin-3-yl)-2-[(3R,5S)-3,4,5-trimethylpiperazin-1-yl]phenyl]-6-oxo-4-(trifluoromethyl)-1H-pyridine-3-carboxamide] in this work.
A Kd of 66.1 nM was found for `CN(C)C1CCN(c2cc(F)c(-c3cnc(N4CCOCC4)nc3)cc2NC(=O)c2c[nH]c(=O)cc2C(F)(F)F)CC1` [Example 258, N-[2-[4-(dimethylamino)piperidin-1-yl]-4-fluoro-5-(2-morpholin-4-ylpyrimidin-5-yl)phenyl]-6-oxo-4-(trifluoromethyl)-1H-pyridine-3-carboxamide] in this work.
